How the values were obtained:
[1] = target: BcPurE (Burkholderia cenocepacia, UniProt B4EA21); assay: biochemical; type: biochemical; conditions: for inhibition of PurE activity in initial screen: two concentrations, 10 and 100 μM, against BcPurE
[2] = target: human PAICS (Homo sapiens, UniProt P22234); type: biochemical; conditions: two concentrations, 10 and 100 μM
human PAICS, sequence (P22234 whole entry): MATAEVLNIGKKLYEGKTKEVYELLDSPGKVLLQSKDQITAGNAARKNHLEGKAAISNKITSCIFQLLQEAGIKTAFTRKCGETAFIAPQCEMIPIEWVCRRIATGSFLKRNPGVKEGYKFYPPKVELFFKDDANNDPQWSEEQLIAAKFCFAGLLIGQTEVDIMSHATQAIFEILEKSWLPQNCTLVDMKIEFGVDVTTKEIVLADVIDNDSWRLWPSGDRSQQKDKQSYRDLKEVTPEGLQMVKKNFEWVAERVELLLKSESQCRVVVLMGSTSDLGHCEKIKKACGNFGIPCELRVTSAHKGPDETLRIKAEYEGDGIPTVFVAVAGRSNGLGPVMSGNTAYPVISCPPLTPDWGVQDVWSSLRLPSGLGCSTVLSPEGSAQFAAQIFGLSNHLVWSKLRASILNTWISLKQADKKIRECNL

BcPurE, sequence (B4EA21 1-173): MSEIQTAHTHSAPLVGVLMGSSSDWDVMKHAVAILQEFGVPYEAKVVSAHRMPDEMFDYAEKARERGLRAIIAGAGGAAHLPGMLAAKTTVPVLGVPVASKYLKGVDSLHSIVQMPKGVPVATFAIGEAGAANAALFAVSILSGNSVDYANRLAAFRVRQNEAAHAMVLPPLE

Structure (SMILES) | inhibition of PurE activity in initial screen [1] | inhibition of human PAICS decarboxylation activity [2] | IC50 [1]
CN(C)C/C=C/C(=O)Nc1cc2c(Nc3ccc(F)c(Cl)c3)ncnc2cc1O[C@H]1CCOC1 [Afatinib] | some degree of inhibition | do inhibit | –
COc1cc2nc(N(C)CCCNC(=O)C3CCCO3)nc(N)c2cc1OC (centres unmarked) [Alfuzosin] | some degree of inhibition | little or no inhibition | 47 µM
COc1ccc(CN=c2[nH]c(N3CCC[C@H]3CO)ncc2C(=O)NCc2ncccn2)cc1Cl [Avanafil] | some degree of inhibition | little or no inhibition | –
CCc1cc2c(cc1CC)CC(NC[C@H](O)c1ccc(O)c3[nH]c(=O)ccc13)C2 [Indacaterol] | some degree of inhibition | do inhibit | –
CC(=O)N1CCN(c2ccc(OCC3COC(Cn4ccnc4)(c4ccc(Cl)cc4Cl)O3)cc2)CC1 (centres unmarked) [Ketoconazole] | some degree of inhibition | little or no inhibition | –
